The values that follow come from PMC10180197, “Novel Pyrimidine Derivatives as Antioxidant and Anticancer Agents: Design, Synthesis and Molecular Modeling Studies” (Molecules, 2023).

In general, melting point refers to the temperature, or range, at which the solid turns liquid. The inhibition is the share of the control response that was lost under treatment. For orientation: viability means a read-out of living cells in per cent, often relative to untreated cells.

A short description of series [1]: Experimental determination of lipophilicity as RM values (RP-TLC). Format: physicochemical. The settings on record: methanol/water 70/30 v/v, 24 °C, SD < 10%. The source says: Lipophilicity is an important physicochemical parameter of a drug candidate, linking solubility and membrane permeability with the ADMET (absorption, distribution, metabolism, elimination and toxicity) properties and the overall suitability of a molecule. Reversed-phase thin-layer chromatography was the method used to experimentally determine the lipophilic character of the synthesized compounds as RM values (Table 2). Lipophilicity was also theoretically calculated as clog P values using the Bio-Loom program of BioByte Corp (http://www.biobyte.com/, (accessed on 1 March 2023)). An attempt was made to correlate the experimental RM values with the theoretically calculated clog P values (Table 2). […] This disagreement could be attributed to several factors, e.g., different solvation, silanophilic interactions and hydrogen bonding.
Lipophilicity as RM values was determined through reversed-phase TLC (RP-TLC) on silica gel plates impregnated with 5% v/v liquid paraffin in light petroleum ether. Methanol/water mixture (70/30, v/v) was used as mobile phase. Closed chromatography tanks saturated with the mobile phase at 24 °C were used for the development of the plates while the spots were detected under UV light. For the determination of RM values, five individual measurements of Rf values were recorded, and the RM values were derived from the following Equation (1). (1) RM=log1/Rf−1

Series [2] deals with T1, soybean lipoxygenase (Glycine max, UniProt P08170).
T1 construct: purchased Sigma Aldrich- Merck KGaA, Darmstadt, Germany
T1 sequence (P08170 1-839): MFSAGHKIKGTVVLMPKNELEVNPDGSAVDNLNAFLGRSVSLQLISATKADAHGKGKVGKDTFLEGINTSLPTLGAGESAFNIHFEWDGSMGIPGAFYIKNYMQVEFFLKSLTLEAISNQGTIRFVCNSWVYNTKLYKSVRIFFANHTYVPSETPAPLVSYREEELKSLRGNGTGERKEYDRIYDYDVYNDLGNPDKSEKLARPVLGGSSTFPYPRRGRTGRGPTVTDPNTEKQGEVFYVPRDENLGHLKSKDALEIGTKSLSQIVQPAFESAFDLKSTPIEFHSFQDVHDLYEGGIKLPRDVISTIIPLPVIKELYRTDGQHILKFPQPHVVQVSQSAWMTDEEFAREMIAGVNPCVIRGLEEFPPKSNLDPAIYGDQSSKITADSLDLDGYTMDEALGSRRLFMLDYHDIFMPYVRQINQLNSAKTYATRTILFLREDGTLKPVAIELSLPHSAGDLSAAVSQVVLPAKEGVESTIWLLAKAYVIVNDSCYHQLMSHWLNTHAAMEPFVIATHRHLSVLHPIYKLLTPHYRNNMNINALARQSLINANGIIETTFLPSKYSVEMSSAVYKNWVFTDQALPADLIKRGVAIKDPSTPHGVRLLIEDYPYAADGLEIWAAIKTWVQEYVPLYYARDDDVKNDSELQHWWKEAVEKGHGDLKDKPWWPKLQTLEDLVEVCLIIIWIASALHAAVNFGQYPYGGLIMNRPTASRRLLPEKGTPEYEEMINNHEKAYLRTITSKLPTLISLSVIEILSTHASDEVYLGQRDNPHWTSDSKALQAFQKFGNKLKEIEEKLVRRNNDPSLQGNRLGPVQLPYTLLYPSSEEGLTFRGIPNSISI
In words: Inhibition of soybean lipoxygenase. The settings on record: 100 μM; cells of the mixed column without μM; read-out: LOX % Inhibition 100 μM. Type of series: biochemical. From the text:
Lipoxygenase (LOX) is the key enzyme in the biosynthesis of inflammatory mediators; thus, it is considered a target for inflammatory diseases. Soybean LOX is a plant enzyme that has been used widely as a prototype for studying the functional and structural properties of the homologous family of lipoxygenases, presenting satisfactory homology with the human 5-LOX [42]. Linoleic acid is the most common substrate in plant LOX. […] Lipophilicity is considered one of the most important parameters with regard to LOX inhibitors according to the literature.
In vitro study was performed as reported previously by our group. In this experiment, 10 μL of the tested compound (from the stock solution) were incubated with 100 μL sodium linoleate (diluted in Tris buffer), 200 μL LOX solution (1:9 × 10^−4 w/v in saline) and 690 μL Tris buffer (pH 9.0) at room temperature. The absorbance was measured at 234 nm, where the change of absorbance was recorded due to the formation of 13-hydroperoxy-linoleic acid. […] In order to determine the IC50 values, different concentrations were used.

Series [3] can be described thus: Inhibition of AAPH induced linoleic acid peroxidation. The procedure: For the lipid peroxidation study, 2,2′-Azobis(2-methylpropionamidine) dihydrochloride (AAPH) was used as the generator of peroxy radicals and sodium linoleate as the substrate that undergoes peroxidation. The conversion of linoleic acid to 13-hydroperoxy-linoleic acid was recorded at 234 nm. The change of absorbance reflects the possible antioxidant activity of the tested compounds, in comparison with the reference compound, Trolox.
In vitro study was performed as reported previously by our group. AAPH was used as a free radical generator of alkyl peroxyl radicals. For this experimental procedure, 10 μL of the tested compound (from the stock solution), 10 μL sodium linoleate (16 mM), 50 μL AAPH (40 mM) and 930 μL phosphate-buffered solution (pH 7.4) were added in a UV cuvette (1 mL), pre thermostated at 37 °C. The ability of the compounds to prevent the oxidation of linoleic acid from alkyl peroxyl radicals was evaluated by recording the change of absorbance at 234 nm, due to the conversion of linoleic acid to 13-hydroperoxy-linoleic acid. Trolox was used as the reference.

The nature of series [4]: MTT cell viability assay, HaCaT. Particulars: human, HaCaT cells (epidermal keratinocyte cell line), 100 μΜ. Format: cell-based, human. The procedure:
The MTT (3-(4,5-dimethylthiazol-2-yl)-2,5-diphenyltetrazolium bromide) assay is a colorimetric method that is used for the evaluation of cell viability. MTT is converted into colored formazan crystals, indicating the activity of mitochondria and therefore the viability of the cells. Unlike dead cells, the metabolic processes of living cells are functional, meaning that the dehydrogenase enzymes are able to reduce the yellow MTT salt solution to purple crystals, at 37 °C. The intensity of the sample’s color, due to the amount of formazan crystals, is proportional to the number of the living cells in it. Additionally, the colored product is dissolved in various solubilizing agents, such as dimethyl sulfoxide (DMSO). The colored products can be quantitatively measured at 450 nm with a plate reader spectrophotometer. In this study, the human epidermal keratinocyte cell line (HaCaT) was treated with different concentrations (100 μM, 50 μM, 10 μM and 1 μM) of the tested compounds and then the viability rates at each effect were calculated.
(§1) Τhe MTT assay was used to evaluate cell viability or cell toxicity, depending on the cell line being tested. The experimental procedure was performed in a 96-well plate, where the cells were seeded and incubated (37 °C, 5% CO2) for 24 h to grow and cover the surface of the wells. Τhe seeding concentrations for the HaCaT and A549 cells were 30 × 10^4 cells/mL and 20 × 10^4 cells/mL, respectively. After the first incubation, the solutions of the compounds (with different concentrations) were added to the adherent cells and incubated for another 24 h. The compounds were tested in triplicate against the control (only cells in medium), the blank (only medium) and the positive/negative control (cells in 100 μM silibinin solution) triplicates. Silibinin, a flavonoid with known anticancer activities, was used as a negative control for the cell viability assay and as positive control for the cytotoxicity testing assay. The light-sensitive MTT-standard solution was prepared by dissolving 1 mg/mL MTT in PBS and then filtrated (in a […] filter (Millipore, Carrigtwohill, Ireland)). On the third day, an appropriate amount of ΜΤΤ solution was added to each well and the plate was incubated for 4 h. During the incubation time, the formazan crystals were formed, which were then dissolved with 100 μL DMSO per well. Finally, the plate was stirred for 30 min, and the optical density (OD) was measured in a plate reader spectrophotometer at 450 nm.

For series [5], the system named is A549 cell line. In words: MTT cytotoxicity assay, A549. Type of series: cell-based, human. The settings on record: Homo sapiens; A549, 100 μΜ, 24 h; read-out: % Cell Toxicity 100 μΜ. On the procedure:
The compounds of this study were also tested for their cytotoxic effects against the adenocarcinomic human alveolar basal epithelial cell line (A549) at different concentrations (100 μM, 75 μΜ, 50 μM and 10 μM).
as §1
(Tetrazolium dyes change colour on reduction, which living cells bring about.)

A short description of series [6]: Reducing activity of the stable radical DPPH. On the procedure: All the synthesized compounds were studied for their ability to interact with the stable free 2,2-diphenyl-1-picrylhydrazyl radical (DPPH) at a concentration of 100 μM after 20 min and 60 min (Table 4). This assay is based on the reduction of DPPH by transferring one electron from the antioxidant.
In vitro study was performed as reported previously by our group. In this experiment, 20 μL of the tested compound (from the stock solution), 980 μL EtOH and 1 mL ethanolic solution of DPPH (100 μM) were added in a testing tube in a final volume of 2 mL. The free radical scavenging ability was evaluated by recording the change of absorbance at 517 nm, produced by the reduction of DPPH, after 20 and 60 min at room temperature.
For orientation: DPPH is a stable violet radical that fades when it is reduced.

As for `O=C(/C=C/c1cccs1)c1ccccc1` [Compound 1c, (E)-1-phenyl-3-(thiophen-2-yl)prop-2-en-1-one], the melting point fell in the range of 58 to 60 °C. Also, in series [1], the RM is on record as −0.52. In addition, in series [2], the inhibition at 100 µM was found to be 6%.

Consider `Cc1c(C)c2c(c(C)c1O)CCC(C)(C(=O)O)O2` (centres unmarked) [Trolox, 6-Hydroxy-2,5,7,8-tetramethyl-chroman2-carboxylic acid, reference compound], for which the “AAPH % Inhibition 100 μM” value in series [3] is “- 92%”.

In the case of `COc1cc(C2Oc3cc([C@H]4Oc5cc(O)cc(O)c5C(=O)[C@@H]4O)ccc3OC2CO)ccc1O` (some centres unmarked) [Silibinin, reference compound], in series [4], the viability at 24 h, 100 μM was 14.9%. In addition, the cytotoxicity at 100 µM in series [5] turned out to be 96.4%.

For `CC(Cc1ccc(O)c(O)c1)C(C)Cc1ccc(O)c(O)c1` (centres unmarked) [NDGA, Nordihydroguaretic acid, reference compound], in series [6] (20 min), the “RA % 100 μM 20 min” value is listed as 87 - %. Moreover, the “RA % 100 μM 60 min” value in series [6] (60 min) is 93 - %.
